These results are taken from the supplement of paper PMC10307832.

Common to all, as to assay: relative viability (nuclei count vs DMSO), 5 days (fraction); higher = more cells survive
Compound in the assay “Sulindac + OSI-027”: CC1=C(CC(=O)O)c2cc(F)ccc2/C1=C\c1ccc([S+](C)[O-])cc1 [Sulindac] + COc1cccc2cc(-c3nc([C@H]4CC[C@H](C(=O)O)CC4)n4ncnc(N)c34)[nH]c12 [OSI-027] (partner 0.5 µM)
The method in brief: (§1)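 Lung cancer cell lines, seeded in 1536-well plates, were treated the following day by pin tool with a single drug or with five library-drug doses (not always all listed) in √10 steps on top of a fixed anchor-drug dose. Cells were fixed and nuclei stained in one step after 5 days, and nuclei were counted. Relative viability is the nuclei count for treated wells divided by that for vehicle wells, reported as medians of duplicate plates.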

Compound in the assay “Sulindac + Decitabine”: CC1=C(CC(=O)O)c2cc(F)ccc2/C1=C\c1ccc([S+](C)[O-])cc1 [Sulindac] + Nc1ncn([C@H]2C[C@H](O)[C@@H](CO)O2)c(=O)n1 [Decitabine] (partner 2 µM)
An outline of the steps: as §1

Compound in assay [1]: CN[C@@H]1C[C@H]2O[C@@](C)([C@@H]1OC)n1c3ccccc3c3c4c(c5c6ccccc6n2c5c31)C(=O)NC4 [Staurosporine] + Nc1ncn([C@H]2C[C@H](O)[C@@H](CO)O2)c(=O)n1 [Decitabine] (partner 2 µM)
The method in brief:
as §1

Compound in assay [2]: O=c1[nH]cc(F)c(=O)[nH]1 [5-Fluorouracil] + COc1cc2c(Oc3ccc(NC(=O)C4(C(=O)Nc5ccc(F)cc5)CC4)cc3F)ccnc2cc1OCCCN1CCOCC1 [Foretinib] (partner 0.25 µM)
The method in brief:
as §1

Consider NCI-H520, for which the relative viability was found to be 0.266 with Sulindac + OSI-027 (first compound 0.08 µM); 0.266 with Sulindac + OSI-027 (first compound 0.253 µM); 0.232 in the assay with Sulindac + OSI-027 (first compound 2.53 µM); 0.307 with Sulindac + OSI-027 (first compound 8 µM); 0.516 with Sulindac + Decitabine (first compound 0.08 µM); 0.568 with Sulindac + Decitabine (first compound 0.253 µM). Moreover, the relative viability amounted to 0.467 with Sulindac + Decitabine (first compound 0.8 µM); 0.431 in the assay with Sulindac + Decitabine (first compound 2.53 µM); 0.505 with Sulindac + Decitabine (first compound 8 µM); 0.527 in assay [1] (first compound 0.005 µM); 0.465 in assay [1] (first compound 0.01581 µM); 0.392 in assay [1] (first compound 0.05 µM). Moreover, the relative viability in assay [1] (first compound 0.1581 µM) came to 0.188; in assay [1] (first compound 0.5 µM), 0.161; in assay [2] (first compound 0.02 µM), 0.555; in assay [2] (first compound 0.2 µM), 0.697; in assay [2] (first compound 0.6325 µM), 0.641; in assay [2] (first compound 2 µM), 0.563.

For NCI-H596, the relative viability was determined as 0.798 in the assay with Sulindac + OSI-027 (first compound 0.08 µM); 0.761 with Sulindac + OSI-027 (first compound 0.253 µM); 0.76 with Sulindac + OSI-027 (first compound 0.8 µM); 0.77 with Sulindac + OSI-027 (first compound 2.53 µM); 0.772 with Sulindac + OSI-027 (first compound 8 µM); 0.894 in the assay with Sulindac + Decitabine (first compound 0.08 µM). Further, the relative viability came to 0.982 with Sulindac + Decitabine (first compound 0.253 µM); 1.2 in the assay with Sulindac + Decitabine (first compound 2.53 µM); 1.1 in the assay with Sulindac + Decitabine (first compound 8 µM); 1.01 in assay [1] (first compound 0.005 µM); 0.885 in assay [1] (first compound 0.01581 µM); 0.712 in assay [1] (first compound 0.05 µM). Also, the relative viability amounted to 0.366 in assay [1] (first compound 0.1581 µM); 0.504 in assay [1] (first compound 0.5 µM); 0.76 in assay [2] (first compound 0.02 µM); 0.794 in assay [2] (first compound 0.2 µM); 0.572 in assay [2] (first compound 0.6325 µM); 0.488 in assay [2] (first compound 2 µM).

Regarding NCI-H647, the relative viability amounted to 0.63 with Sulindac + OSI-027 (first compound 0.08 µM); 0.947 in the assay with Sulindac + OSI-027 (first compound 0.253 µM); 0.487 with Sulindac + OSI-027 (first compound 0.8 µM); 0.677 in the assay with Sulindac + OSI-027 (first compound 2.53 µM); 0.683 in the assay with Sulindac + OSI-027 (first compound 8 µM); 0.392 with Sulindac + Decitabine (first compound 0.08 µM). The relative viability with Sulindac + Decitabine (first compound 0.253 µM) was 0.51; with Sulindac + Decitabine (first compound 0.8 µM), 0.361; with Sulindac + Decitabine (first compound 2.53 µM) it was 0.442; with Sulindac + Decitabine (first compound 8 µM) it was 0.426; in assay [1] (first compound 0.005 µM) it was 0.379; in assay [1] (first compound 0.01581 µM) it was 0.247. Moreover, the relative viability came out at 0.266 in assay [1] (first compound 0.05 µM); 0.0707 in assay [1] (first compound 0.1581 µM); 0.062 in assay [1] (first compound 0.5 µM); 1.25 in assay [2] (first compound 0.02 µM); 1.32 in assay [2] (first compound 0.2 µM); 0.997 in assay [2] (first compound 0.6325 µM). In assay [2] (first compound 2 µM), the relative viability is 0.796.

As to NCI-H650, the relative viability in the assay with Sulindac + OSI-027 (first compound 0.08 µM) came to 0.506; in the assay with Sulindac + OSI-027 (first compound 0.253 µM) it was 0.523; with Sulindac + OSI-027 (first compound 0.8 µM) it was 0.523; with Sulindac + OSI-027 (first compound 2.53 µM) it was 0.545; in the assay with Sulindac + OSI-027 (first compound 8 µM), 0.566; with Sulindac + Decitabine (first compound 0.08 µM), 0.33. The relative viability with Sulindac + Decitabine (first compound 0.253 µM) worked out at 0.325; with Sulindac + Decitabine (first compound 0.8 µM) it was 0.341; with Sulindac + Decitabine (first compound 2.53 µM), 0.284; in the assay with Sulindac + Decitabine (first compound 8 µM), 0.339; in assay [1] (first compound 0.005 µM), 0.343; in assay [1] (first compound 0.01581 µM), 0.411. The relative viability came out at 0.258 in assay [1] (first compound 0.05 µM); 0.235 in assay [1] (first compound 0.1581 µM); 0.188 in assay [1] (first compound 0.5 µM); 0.976 in assay [2] (first compound 0.02 µM); 0.617 in assay [2] (first compound 0.2 µM); 0.356 in assay [2] (first compound 0.6325 µM). The relative viability in assay [2] (first compound 2 µM) was determined as 0.308.

Regarding NCI-H661, the relative viability turned out to be 0.735 with Sulindac + OSI-027 (first compound 0.08 µM); 0.838 with Sulindac + OSI-027 (first compound 0.253 µM); 0.622 in the assay with Sulindac + OSI-027 (first compound 0.8 µM); 0.711 with Sulindac + OSI-027 (first compound 2.53 µM); 0.797 with Sulindac + OSI-027 (first compound 8 µM); 0.648 with Sulindac + Decitabine (first compound 0.08 µM). Moreover, the relative viability worked out at 0.544 in the assay with Sulindac + Decitabine (first compound 0.253 µM); 0.523 in the assay with Sulindac + Decitabine (first compound 0.8 µM); 0.574 in the assay with Sulindac + Decitabine (first compound 2.53 µM); 0.609 with Sulindac + Decitabine (first compound 8 µM); 0.555 in assay [1] (first compound 0.005 µM); 0.484 in assay [1] (first compound 0.01581 µM). Further, the relative viability in assay [1] (first compound 0.05 µM) amounted to 0.436; in assay [1] (first compound 0.1581 µM), 0.267; in assay [1] (first compound 0.5 µM) it was 0.186; in assay [2] (first compound 0.02 µM), 1.03; in assay [2] (first compound 0.6325 µM), 1.02; in assay [2] (first compound 2 µM) it was 0.972.

In the case of NCI-H727, the relative viability amounted to 0.561 with Sulindac + OSI-027 (first compound 0.08 µM); 0.538 with Sulindac + OSI-027 (first compound 0.253 µM); 0.537 in the assay with Sulindac + OSI-027 (first compound 2.53 µM); 1 with Sulindac + OSI-027 (first compound 8 µM); 0.965 with Sulindac + Decitabine (first compound 0.08 µM); 1.02 in the assay with Sulindac + Decitabine (first compound 0.253 µM). Also, the relative viability with Sulindac + Decitabine (first compound 0.8 µM) was 0.874; in the assay with Sulindac + Decitabine (first compound 2.53 µM) it was 0.866; with Sulindac + Decitabine (first compound 8 µM) it was 0.957; in assay [1] (first compound 0.005 µM), 0.859; in assay [1] (first compound 0.01581 µM) it was 0.587; in assay [1] (first compound 0.05 µM), 0.432. Moreover, the relative viability in assay [1] (first compound 0.1581 µM) was 0.393; in assay [1] (first compound 0.5 µM), 0.316; in assay [2] (first compound 0.02 µM), 0.791; in assay [2] (first compound 0.2 µM), 0.79; in assay [2] (first compound 0.6325 µM), 0.903; in assay [2] (first compound 2 µM), 0.656.

Consider NCI-H838, for which the relative viability with Sulindac + OSI-027 (first compound 0.08 µM) came out at 0.382; with Sulindac + OSI-027 (first compound 0.253 µM), 0.424; with Sulindac + OSI-027 (first compound 0.8 µM), 0.367; with Sulindac + OSI-027 (first compound 2.53 µM), 0.358; with Sulindac + OSI-027 (first compound 8 µM), 0.388; in the assay with Sulindac + Decitabine (first compound 0.08 µM), 0.497. Besides, the relative viability with Sulindac + Decitabine (first compound 0.253 µM) was found to be 0.476; with Sulindac + Decitabine (first compound 0.8 µM), 0.425; with Sulindac + Decitabine (first compound 2.53 µM) it was 0.45; with Sulindac + Decitabine (first compound 8 µM), 0.507; in assay [1] (first compound 0.005 µM), 0.368; in assay [1] (first compound 0.01581 µM), 0.271. Besides, the relative viability is 0.181 in assay [1] (first compound 0.05 µM); 0.139 in assay [1] (first compound 0.1581 µM); 0.141 in assay [1] (first compound 0.5 µM); 1 in assay [2] (first compound 0.02 µM); 1.06 in assay [2] (first compound 0.2 µM); 0.523 in assay [2] (first compound 0.6325 µM). Further, the relative viability in assay [2] (first compound 2 µM) amounted to 0.317.
